Tests used:
[1] = tested on: S. aureus USA100 (MRSA); assay: microbe, parasite or virus in culture; assay type: cell-based, Staphylococcus aureus; conditions: Staphylococcus aureus, compound alone, CAMHB, 18 h
[2] = tested on: S. aureus 43300 (MRSA); assay: Antibiotic repotentiation (antibiotic MIC with/without compound); assay type: cell-based, Staphylococcus aureus; conditions: +50 μM compound
[3] = tested on: S. aureus USA300 (MRSA); assay: as above; assay type: cell-based, Staphylococcus aureus; conditions: +50 μM compound, S. aureus USA300 (MRSA)
[4] = tested on: S. aureus 29213 biofilm; assay: Biofilm inhibition, crystal violet assay; assay type: cell-based; conditions: Staphylococcus aureus, 30 h
Protocol: (§1) A standard static crystal violet assay was used to quantify biofilm inhibition.^45 Cultures of S. aureus or S. epidermidis were grown overnight in TSBG (tryptic soy broth with 5% glucose) at 37° C. with shaking. These cultures were used to inoculate fresh TSBG to a calculated optical density of 0.01 at 600 nm (OD600). […] Untreated aliquots were used as a positive control and water served as a negative control. 100 μl of these suspensions were added to the wells of a 96-well polyvinylchloride microtiter plate. […] After incubation, media was discarded and the plates were washed with water to remove non-adherent cells. Adherent biofilms were stained with 110 μl of crystal violet (0.1% in water) and incubated at room temperature for thirty minutes. The crystal violet staining solution was discarded and plates were washed with water to remove excess stain. The resulting stained biofilms were solubilized with 200 μL of 95% ethanol for 10 minutes. 125 μl of the ethanol solutions were transferred to a clear polystyrene microtiter plate for evaluation. Absorbance at 540 nm was recorded using a BioTek Synergy H1 microplate reader. The absorbance of the negative control lanes was subtracted from the experimental values to account for background staining. Percent inhibition was calculated by comparison of the absorbance values of control versus treated wells under identical conditions.
(§2) Antibiotic resistance and biofilm formation share similar regulatory mechanisms. […] Biofilm inhibition was first assessed in S. aureus 43300, a methicillin-resistant strain (see Table 18). As described in Materials and Methods, a standard crystal violet assay was used to assess biofilm inhibition by the tested compounds. The IC50 is described as the compound concentration required to inhibit 50% of biofilm formation. The standard deviation is calculated from at least 3 independent experiments.
(§3) The biofilm inhibition activity of loratadine was further explored in other strains of S. aureus. Loratadine was capable of inhibiting biofilm formation in all tested strains of S. aureus, including methicillin-resistant and vancomycin-resistant strains.

[5] = tested on: S. aureus NR-49120 biofilm; assay: Biofilm inhibition, crystal violet assay; assay type: cell-based; conditions: Staphylococcus aureus, NR49120BIOFILM, S. aureus NR-49120 (methicillin and vancomycin resistant), 30 h
Protocol: as §1, §2, §3

[6] = tested on: S. aureus NR-50109 biofilm; assay: Biofilm inhibition, crystal violet assay; assay type: cell-based; conditions: Staphylococcus aureus, NR50109BIOFILM, S. aureus NR-50109 (methicillin and vancomycin resistant), 30 h
Protocol: as §1, §2, §3

[7] = tested on: S. aureus USA100 biofilm; assay: Biofilm inhibition, crystal violet assay; assay type: cell-based; conditions: Staphylococcus aureus, S. aureus USA100 (MRSA), 30 h
Protocol: as §1, §2, §3

[8] = tested on: S. aureus USA300 biofilm; assay: Biofilm inhibition, crystal violet assay; assay type: cell-based; conditions: Staphylococcus aureus, S. aureus USA300 (MRSA), 30 h
Protocol: as §1, §2, §3

[9] = tested on: S. epidermidis ATCC 49461 biofilm; assay: Biofilm inhibition, crystal violet assay; assay type: cell-based, Staphylococcus epidermidis; conditions: Staphylococcus epidermidis, ATCC49461, 30 h, read-out: Inhibition of biofilm formation IC50
Protocol: as §1

[10] = tested on: S. aureus 29213 pre-formed biofilm; assay: Biofilm dispersion assay; assay type: cell-based; conditions: Staphylococcus aureus
Protocol: (§4) Overnight cultures of S. aureus or S. epidermidis were subcultured to an OD600 of 0.01 in tryptic soy broth supplemented with 0.5% glucose (TSBG). For USA300Δ/+stk1, TSBG was supplemented with 0.2% xylose to induce transcription of stk1. 100 μl of the culture was distributed into rows 2-11 of a 96-well polyvinylchloride plate. Rows 1 and 12 were filled with 100 μl of sterile water and served as the negative controls. […] After the incubation period, the media was discarded and the plates were washed with water to remove non-adherent cells. Media containing the desired concentrations of compound was prepared and 100 μl was added to the desired rows. Media alone was added as a positive control and sterile water was added as a negative control. The plates were sealed with Glad Press-n-Seal and incubated under stationary conditions for another 24 hours. The media was discarded and plates were washed with water to remove any non-adherent bacteria. 110 μl of an aqueous crystal violet solution (0.1%) was added to each well and allowed to rest at room temperature to stain any biomass. After 30 minutes, the crystal violet solution was discarded and the plates were washed with water. The stained biomass was dissolved in 95% ethanol (200 μl) for 30 minutes and 125 μl was transferred to the corresponding wells of a flat-bottomed polystyrene 96-well plate. The absorbance of each well was measured at 540 nm. The wells that contained only water were used as background and subtracted from wells containing cultures.
(§5) Biofilm dispersion was quantified by calculating the ratio of the absorbance of the treated wells as compared to the untreated wells. These values were plotted and fit to a curve to determine the EC50.
(§6) Loratadine was also tested for the ability to disperse pre-formed biofilms. Biofilm dispersion is reported as an EC50, which is defined as the concentration of compound required to disperse 50% of the preformed biofilm.

[11] = tested on: S. aureus 43300 pre-formed biofilm; assay: Biofilm dispersion assay; assay type: cell-based; conditions: Staphylococcus aureus, S. aureus 43300 (MRSA)
Protocol: as §4, §5, §6

[12] = tested on: S. aureus USA100 pre-formed biofilm; assay: Biofilm dispersion assay; assay type: cell-based; conditions: Staphylococcus aureus, S. aureus USA100 (MRSA)
Protocol: as §4, §5, §6

[13] = tested on: S. aureus USA300 pre-formed biofilm; assay: Biofilm dispersion assay; assay type: cell-based; conditions: Staphylococcus aureus, S. aureus USA300 (MRSA)
Protocol: as §4, §5, §6

[14] = tested on: S. aureus NR-49120 (VRSA); assay: microbe, parasite or virus in culture; conditions: Staphylococcus aureus, 18 h
Protocol: Minimum inhibitory concentrations were determined using a standard serial broth microdilution method. […] Mid-log-phase cultures were diluted to a concentration of approximately 5×10^5 CFU/ml in cation-adjusted Mueller-Hinton broth (CAMHB). Wells 2-11 of a 96-well polyvinylchloride microtiter plate were inoculated with 100 μl of bacterial suspension. 100 μl of uninnoculated CAMHB was added to well 12 to serve as a negative control. The top wells were inoculated with 200 μl of bacterial suspension with either antibiotics or compounds added. Serial dilutions were performed in wells 2-10, leaving well 11 to serve as the positive control. The microtiter plates were covered with Press-n-Seal and incubated at 37° C. for 18 hours without agitation. Plates were scored by visual detection of well turbidity.

MIC [1]: > 200 µM
Oxacillin MIC ([2]; S. aureus ATCC 43300 (MRSA)): 1 µg/mL
Oxacillin MIC [3]: 0.5 µg/mL
IC50 [4]: 25.9 ± 2.36 µM
IC50 [5]: 59.9 ± 1.29 µM
IC50 [6]: 19.1 ± 2.87 µM
IC50 [7]: 22.2 ± 6.51 µM
IC50 [8]: 32.8 ± 5.9 µM
IC50 [9]: 25.1 ± 3.65 µM
EC50 [10]: > 200 µM
EC50 [11]: > 200 µM
EC50 [12]: 121 µM
EC50 [13]: > 200 µM
MIC [14]: > 200 µM
Structure (SMILES): CCOC(=O)N1CCC(=C2c3ccc(Cl)cc3CCc3cccnc32)CC1 [Loratadine, ethyl 4-(8-chloro-5,6-dihydrobenzo[1,2]cyclohepta[2,4-b]pyridin-11-ylidene)piperidine-1-carboxylate]
Fold Reduction ([2]; oxacillin MIC, S. aureus 43300 (MRSA)): 32
Fold Reduction ([3]; oxacillin MIC): 64
